Source: PubChem BioAssay AID330 (DTP/NCI, 2004)
Where “and” joins values, the source holds several entries; their conditions need not be identical. Equal values may be shown once. Toxic doses and inconclusive results are not listed. How the source made its calls: active means survival T/C of 150% or more; inactive means T/C below 125% in these data.

Tested on: P388 leukemia ip, CD2F1 mice, survival T/C
Assay: NCI In Vivo Anticancer Drug Screen. Data for tumor model P388 Leukemia (intraperitoneal) in CD2F1 (CDF1) mice
Settings: endpoint: median survival time, higher = longer survival
In short: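 Mice carrying the transplanted tumor received test compound or vehicle. Survival was recorded in each group, and the value is the treated-group measurement divided by that of the vehicle-treated control group.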

[1] = dose: 50.0 mg/kg/injection, schedule: Q01DX009 (ip), vehicle: Klucel (hydroxypropylcellulose) (HPC)
[2] = dose: 100.0 mg/kg/injection, schedule: Q01DX009 (ip), vehicle: Klucel (hydroxypropylcellulose) (HPC)
[3] = dose: 200.0 mg/kg/injection, schedule: Q01DX009 (ip), vehicle: Klucel (hydroxypropylcellulose) (HPC)
[4] = dose: 50.0 mg/kg/injection, schedule: Q01DX005 (ip), vehicle: saline with Tween-80
[5] = dose: 100.0 mg/kg/injection, schedule: Q01DX005 (ip), vehicle: saline with Tween-80
[6] = dose: 60.0 mg/kg/injection, schedule: Q01DX005 (ip), vehicle: Klucel (hydroxypropylcellulose) (HPC)
[7] = dose: 120.0 mg/kg/injection, schedule: Q01DX005 (ip), vehicle: Klucel (hydroxypropylcellulose) (HPC)
[8] = dose: 240.0 mg/kg/injection, schedule: Q01DX005 (ip), vehicle: Klucel (hydroxypropylcellulose) (HPC)
[9] = dose: 50.0 mg/kg/injection, schedule: Q01DX005 (ip), vehicle: Klucel (hydroxypropylcellulose) (HPC)
[10] = dose: 100.0 mg/kg/injection, schedule: Q01DX005 (ip), vehicle: Klucel (hydroxypropylcellulose) (HPC)
[11] = dose: 200.0 mg/kg/injection, schedule: Q01DX005 (ip), vehicle: Klucel (hydroxypropylcellulose) (HPC)
[12] = dose: 100.0 mg/kg/injection, schedule: Q01DX009 (ip), vehicle: saline with Tween-80
[13] = dose: 200.0 mg/kg/injection, schedule: Q01DX009 (ip), vehicle: saline with Tween-80
[14] = dose: 60.0 mg/kg/injection, schedule: Q01DX005 (ip), vehicle: saline with Tween-80
[15] = dose: 120.0 mg/kg/injection, schedule: Q01DX005 (ip), vehicle: saline with Tween-80
[16] = dose: 240.0 mg/kg/injection, schedule: Q01DX005 (ip), vehicle: saline with Tween-80
[17] = dose: 100.0 mg/kg/injection, schedule: Q01DX001 (ip), vehicle: saline with Tween-80
[18] = dose: 200.0 mg/kg/injection, schedule: Q01DX001 (ip), vehicle: saline with Tween-80
[19] = dose: 100.0 mg/kg/injection, schedule: Q04DX002 (ip), vehicle: saline with Tween-80
[20] = dose: 50.0 mg/kg/injection, schedule: Q01DX009 (ip), vehicle: saline with Tween-80

Measured: T/C

CC1(C)O[C@H]2CC(=O)OC[C@@]23[C@H]1CC(=O)[C@@]1(C)C2=CCC(c4ccoc4)[C@]2(C)CC[C@@H]13 (stereo not given in full)
inactive: dose: 3.12 mg/kg/injection, schedule: Q01DX005 (ip), vehicle: distilled water + Tween-80 95 % of control | dose: 6.25 mg/kg/injection, schedule: Q01DX005 (ip), vehicle: distilled water + Tween-80 99 % of control | dose: 12.5 mg/kg/injection, schedule: Q01DX005 (ip), vehicle: distilled water + Tween-80 102 % of control | dose: 25.0 mg/kg/injection, schedule: Q01DX005 (ip), vehicle: distilled water + Tween-80 116 % of control | dose: 50.0 mg/kg/injection, schedule: Q01DX005 (ip), vehicle: distilled water + Tween-80 92 % of control

CCCCNC1=CC(=S)NC(C)(C)C1
inactive: [1] 104 % of control | [2] 86 % of control | [3] 104 % of control

CCNC(=O)C(CCO)NC(=O)OCc1ccccc1 (stereo not given)
inactive: dose: 12.5 mg/kg/injection, schedule: Q01DX009 (ip), vehicle: distilled water + Tween-80 118 % of control | dose: 25.0 mg/kg/injection, schedule: Q01DX009 (ip), vehicle: distilled water + Tween-80 101 % of control | dose: 50.0 mg/kg/injection, schedule: Q01DX009 (ip), vehicle: distilled water + Tween-80 110 % of control

CCCCC(CCCC)=NO
inactive: [4] 108 % of control | [5] 100 % of control

CCC(=O)N=c1sc(SCc2ccccc2)nn1C(=O)SC (tested in a mixture with another compound)
inactive: [6] 95 % of control | [7] 98 % of control | [8] 90 % of control

Cc1cccc(C)c1OCc1n[nH]c(=S)n1-c1ccccc1
inactive: [9] 89 % of control | [10] 90 % of control | [11] 90 % of control

CC1(N2CCCCC2)C(=O)NC(=O)N(C2CCCCC2)C1=O (stereo not given)
inactive: [6] 88 % of control | [7] 95 % of control | [8] 89 % of control

Cc1ncc(CO)c(C=Nc2ccccc2N=Cc2c(CO)cnc(C)c2O)c1O.[Zn]
inactive: [9] 104 % of control | [10] 105 % of control | [11] 101 % of control

c1ccc(Cn2ccnc2CSCCSCc2nccn2Cc2ccccc2)cc1
inactive: dose: 30.0 mg/kg/injection, schedule: Q01DX005 (ip), vehicle: Klucel (hydroxypropylcellulose) (HPC) 101 % of control | [6] 99 % of control and 90 % of control | [7] 99 % of control and 105 % of control | [8] 97 % of control

O=C(Nc1ccc(C(=O)Nc2cc(S(=O)(=O)O)cc3cc(S(=O)(=O)O)cc(O)c23)cc1)c1ccccc1
inactive: [12] 98 % of control | [13] 106 % of control | dose: 400.0 mg/kg/injection, schedule: Q01DX009 (ip), vehicle: saline with Tween-80 103 % of control

CCc1nc(N)nc(N)c1-c1ccc(Cl)c(N=CN(C)C)c1
inactive: [14] 102 % of control | [15] 108 % of control | [16] 108 % of control

COCc1c(-c2ccccc2)nn(O)c1-c1ccccc1
inactive: dose: 50.0 mg/kg/injection, schedule: Q01DX001 (ip), vehicle: saline with Tween-80 103 % of control | [17] 96 % of control | [18] 87 % of control

Nc1ccc(CCCCc2ccc(Cl)c(S(=O)(=O)F)c2)c(Cl)c1
inactive: [12] 91 % of control | [13] 91 % of control

O=C1C(C(=Nc2cccc(Br)c2)c2ccccc2)=C(O)c2ccccc21
inactive: dose: 25.0 mg/kg/injection, schedule: Q04DX002 (ip), vehicle: saline with Tween-80 96 % of control | dose: 50.0 mg/kg/injection, schedule: Q04DX002 (ip), vehicle: saline with Tween-80 100 % of control | [19] 99 % of control

CC(C)(C)/[N+]([O-])=C/C1(C2(/C=[N+](\[O-])C(C)(C)C)Cc3ccccc3C2=O)Cc2ccccc2C1=O (stereo not given)
inactive: [14] 101 % of control | [15] 105 % of control | [16] 103 % of control

CC(=O)C1=C(O)/C(=C\SCc2ccccc2)NC1=O
inactive: dose: 8.75 mg/kg/injection, schedule: Q01DX005 (ip), vehicle: Klucel (hydroxypropylcellulose) (HPC) 105 % of control | dose: 17.5 mg/kg/injection, schedule: Q01DX005 (ip), vehicle: Klucel (hydroxypropylcellulose) (HPC) 104 % of control | dose: 35.0 mg/kg/injection, schedule: Q01DX005 (ip), vehicle: Klucel (hydroxypropylcellulose) (HPC) 101 % of control

Cc1c(C)n(C)c(=S)n(C)c1=S
inactive: [9] 97 % of control | [10] 99 % of control | [11] 97 % of control

CCN(CC)CCCC(C)Nc1cc(OC)c2nc(C)cc(Cl)c2c1OC (stereo not given)
inactive: [20] 87 % of control | [12] 87 % of control | [13] 95 % of control

Nn1c(N/N=C\c2ccccc2)nnc1N/N=C/c1ccccc1
inactive: dose: 50.0 mg/kg/injection, schedule: Q01DX001 (ip), vehicle: Klucel (hydroxypropylcellulose) (HPC) 113 % of control | dose: 100.0 mg/kg/injection, schedule: Q01DX001 (ip), vehicle: Klucel (hydroxypropylcellulose) (HPC) 105 % of control

Cc1c(N)nc(C(CC(N)=O)NCC(N)C(N)=O)nc1C(=O)NC(C(=O)NC(C)C(O)CC(=O)NC(C(=O)NC(OC1OC(C)C(N)C(O)C1O)C(O)c1nc(-c2nc(C(=O)NCCCC(N)CC(=O)NCCCNCCCCN)cs2)cs1)C(C)O)C(OC1OC(CO)C(O)C(O)C1OC1OC(CO)C(O)C(OC(N)=O)C1O)c1cnc[nH]1 (stereo not given)
inactive: dose: 0.5 mg/kg/injection, schedule: Q01DX009 (ip), vehicle: water 106 % of control | dose: 0.8 mg/kg/injection, schedule: Q01DX009 (ip), vehicle: water 113 % of control and 119 % of control | dose: 1.0 mg/kg/injection, schedule: Q01DX009 (ip), vehicle: water 113 % of control | dose: 1.3 mg/kg/injection, schedule: Q01DX009 (ip), vehicle: water 113 % of control and 97 % of control | dose: 2.0 mg/kg/injection, schedule: Q01DX009 (ip), vehicle: water 113 % of control | dose: 2.2 mg/kg/injection, schedule: Q01DX009 (ip), vehicle: water 111 % of control and 87 % of control | dose: 3.6 mg/kg/injection, schedule: Q01DX009 (ip), vehicle: water 92 % of control

CCOC1OCN(Cc2ccccc2)CC1(C)C (stereo not given)
inactive: [20] 114 % of control | [12] 115 % of control | [13] 117 % of control

O=Cc1cc2ccc3ccccc3c2[nH]1
inactive: [18] 90 % of control

Nc1ccccc1C(=O)NCCc1c[nH]c2ccccc12
inactive: [4] 99 % of control | [5] 107 % of control | dose: 200.0 mg/kg/injection, schedule: Q01DX005 (ip), vehicle: saline with Tween-80 107 % of control

CN(C)C1C=C(c2ccccc2)OS(=O)(=O)C1 (stereo not given)
inactive: [20] 99 % of control | [12] 97 % of control | [13] 113 % of control

O=C(c1ccccc1)C(c1ccccc1)n1nccc1-c1ccccc1 (stereo not given)
inactive: [1] 105 % of control | [2] 105 % of control | [3] 99 % of control

S=c1[nH]c(N2CCOCC2)ncc1-c1ccccc1
inactive: [19] 99 % of control | dose: 200.0 mg/kg/injection, schedule: Q04DX002 (ip), vehicle: saline with Tween-80 99 % of control

Brc1cnc2nc(Cc3ccccc3)[nH]c2c1
inactive: [17] 97 % of control | [18] 113 % of control | dose: 400.0 mg/kg/injection, schedule: Q01DX001 (ip), vehicle: saline with Tween-80 97 % of control

CCNC(=O)c1c(C)nc(-c2ccccc2)nc1Nc1ccc(OCC)cc1
inactive: [14] 98 % of control | [15] 98 % of control | [16] 103 % of control

COc1cc(/C=C(\C)[N+](=O)[O-])cc(Br)c1O
inactive: dose: 100.0 mg/kg/injection, schedule: Q04DX003 (ip), vehicle: saline with Tween-80 100 % of control | dose: 200.0 mg/kg/injection, schedule: Q04DX003 (ip), vehicle: saline with Tween-80 109 % of control | dose: 400.0 mg/kg/injection, schedule: Q04DX003 (ip), vehicle: saline with Tween-80 94 % of control

CC(C)c1cc(C(C)C)c(S(=O)(=O)ON)c(C(C)C)c1
inactive: dose: 100.0 mg/kg/injection, schedule: Q04DX002 (ip), vehicle: saline 112 % of control | dose: 200.0 mg/kg/injection, schedule: Q04DX002 (ip), vehicle: saline 99 % of control
